The test system of data set [1] is Mus musculus. As to the kind of experiment: The compound was tested for anticonvulsant activity in Maximal electroshock seizure test (MES) for 4 hr in mice(ip); active at 300 mg/kg. The format is functional, organism-based. The arrangement: dose 300 mg/kg. (In general: The maximal electroshock test induces tonic seizures with an electrical stimulus.)
Data set [2] has as its system Mus musculus. As to the kind of experiment: Anticonvulsant activity in Maximal electroshock seizure test at 100 mg/kg i.p. in mice. On the set-up: dose 100 mg/kg. The format is functional, organism-based.
For data set [3], the system named is Mus musculus. As to the kind of experiment: The compound was tested to inhibit 50% of induced maximal electroshock seizure in mice on ip administration. It counts as functional.
Data set [4] relates to Mus musculus. As to the kind of experiment: Inhibition of s.c. pentylenetetrazole induced seizure in mice following i.p. administration. The format is functional.
The subject of data set [5] is Mus musculus. As to the kind of experiment: The compound was determined for the dose (mg/kg) by rotarod test at the time of peak neurotoxic effect in mice on ip administration. It counts as functional.
Data set [6] has as its system Mus musculus. As to the kind of experiment: The compound was tested for anticonvulsant activity in subcutaneous pentylenetetrazole seizure test (sc Met) for 30 min in mice; active at 100 mg/kg. The format is functional, organism-based. On the set-up: dose 100 mg/kg.
Data set [7] relates to Mus musculus. As to the kind of experiment: The anticonvulsant activity in subcutaneous pentylenetetrazole seizure test (sc Met) for 4 hr in mice; no activity or no toxicity at 300 mg/kg. It counts as functional, organism-based. On the set-up: dose 300 mg/kg.
Data set [8] concerns Rattus norvegicus. As to the kind of experiment: The compound was tested per os dose of 30 mg/kg for 0.25 hours for rotarod toxicity; 0/4. It counts as functional. A general note: Falling from the rotarod earlier than controls is read as motor impairment.
For data set [9], the system named is Rattus norvegicus. As to the kind of experiment: The compound was tested per os dose of 30 mg/kg for 0.5 hours for rotarod toxicity; 0/4. The format is functional.
Data set [10] concerns Rattus norvegicus. As to the kind of experiment: The compound was tested per os dose of 30 mg/kg for 1 hour for rotarod toxicity; 0/4. It counts as functional.
The test system of data set [11] is Rattus norvegicus. As to the kind of experiment: The compound was tested per os dose of 30 mg/kg for 2 hours for rotarod toxicity; 0/4. The format is functional.
Data set [12] relates to Rattus norvegicus. As to the kind of experiment: The compound was tested per os dose of 30 mg/kg for 4 hours for rotarod toxicity; 0/4. It counts as functional.
In data set [13] the test system is Rattus norvegicus. As to the kind of experiment: The compound was tested for the effective oral dose to inhibit 50% of the anticonvulsant in rats.(Value in parenthesis indicate 95% confidence limits). The format is functional.
Data set [14] deals with Rattus norvegicus. As to the kind of experiment: The compound was tested per os dose of 30 mg/kg for 0.25 hours for maximal electroshock test on rats; MES= 4/4. The format is functional.
Data set [15] deals with Rattus norvegicus. As to the kind of experiment: The compound was tested per os dose of 30 mg/kg for 0.5 hours for maximal electroshock test on rats; MES= 2/4. The format is functional.
In data set [16] the test system is Rattus norvegicus. As to the kind of experiment: The compound was tested per os dose of 30 mg/kg for 1 hour for maximal electroshock test on rats; MES= 1/4. The format is functional.
The subject of data set [17] is Rattus norvegicus. As to the kind of experiment: The compound was tested per os dose of 30 mg/kg for 2 hours for maximal electroshock test on rats; MES= 0/4. It counts as functional.
For data set [18], the system named is Rattus norvegicus. As to the kind of experiment: The compound was tested per os dose of 30 mg/kg for 4 hours for maximal electroshock test on rats; MES= 0/4. The format is functional.
A short description of data set [19]: The compound was tested for neurologic toxicity (rotarod) test for 30 min in mice; active at 100 mg/kg. It counts as organism-based. On the set-up: dose 100 mg/kg. To be noted: mouse, in vivo, 0.5 h.
Data set [20] is described as follows: The compound was tested for time of peak effect (TPE) in hours for its toxicity in mice on ip administration. The settings on record: mouse, in vivo. The format is organism-based.
Data set [21] is described as follows: The compound was tested for neurologic toxicity (rotarod) test for 4 hours in mice; active at 300 mg/kg. The format is organism-based. On the set-up: dose 300 mg/kg. To be noted: mouse, in vivo.
A short description of data set [22]: The compound was tested for time of peak effect (TPE) in hours for its activity in mice on ip administration. The format is ADME, organism-based. The settings on record: mouse, in vivo.
Data set [23] can be described thus: The compound was tested for the toxic dose on oral administration. (Value in parenthesis indicate 95% confidence limits). The format is ADME. The settings on record: rat.
Data set [24] can be described thus: Protective index value is the ratio between ED50 and TD50. The format is functional.
The test system of data set [25] is Mus musculus. As to the kind of experiment: Time of peak effect in mice following i.p. administration. It counts as functional.
In data set [26] the test system is Mus musculus. As to the kind of experiment: The compound was tested for anticonvulsant activity in Maximal electroshock seizure test for 30 min in mice(ip); active at 30 mg/kg. It counts as functional, organism-based. The arrangement: dose 30 mg/kg.
Data set [27] relates to Mus musculus. As to the kind of experiment: The compound was tested for anticonvulsant activity in Maximal electroshock seizure test (MES) for 4 hr in mice(ip); active at 100 mg/kg. It counts as functional, organism-based. The arrangement: dose 100 mg/kg.
Data set [28] has as its system Mus musculus. As to the kind of experiment: The compound was tested to inhibit 50% of induced maximal electroshock seizure in mice on ip administration. The format is functional.
In data set [29] the test system is Mus musculus. As to the kind of experiment: The compound was tested for anticonvulsant activity in subcutaneous pentylenetetrazole seizure test (sc Met) for 4 hr in mice; active at 300 mg/kg. The format is functional, organism-based. The arrangement: dose 300 mg/kg.
For data set [30], the system named is Rattus norvegicus. As to the kind of experiment: The compound was tested per os dose of 25 mg/kg for 2 hours for rotarod toxicity; 0/4. It counts as functional.
Data set [31] concerns Rattus norvegicus. As to the kind of experiment: The compound was tested per os dose of 25 mg/kg for 4 hours for rotarod toxicity; 0/4. It counts as functional.
Data set [32] concerns Rattus norvegicus. As to the kind of experiment: The compound was tested per os dose of 25 mg/kg for 0.25 hours for rotarod toxicity; 0/4. It counts as functional.
In data set [33] the test system is Rattus norvegicus. As to the kind of experiment: The compound was tested per os dose of 25 mg/kg for 1 hour for rotarod toxicity; 0/4. It counts as functional.
In data set [34] the test system is Rattus norvegicus. As to the kind of experiment: The compound was tested per os dose of 25 mg/kg for 0.25 hours for maximal electroshock test on rats; MES= 2/4. It counts as functional.
Data set [35] deals with Rattus norvegicus. As to the kind of experiment: The compound was tested per os dose of 25 mg/kg for 0.5 hours for maximal electroshock test on rats; MES= 2/4. It counts as functional.
The test system of data set [36] is Rattus norvegicus. As to the kind of experiment: The compound was tested per os dose of 25 mg/kg for 1 hour for maximal electroshock test on rats; MES= 4/4. It counts as functional.
The subject of data set [37] is Rattus norvegicus. As to the kind of experiment: The compound was tested per os dose of 25 mg/kg for 2 hours for maximal electroshock test on rats; MES= 3/4. It counts as functional.
Data set [38] has as its system Rattus norvegicus. As to the kind of experiment: The compound was tested per os dose of 25 mg/kg for 4 hours for maximal electroshock test on rats; MES= 2/4. It counts as functional.
Data set [39] can be described thus: The compound was tested for neurologic toxicity (rotarod) test for 30 min in mice; active at 30 mg/kg. The format is organism-based. The arrangement: dose 30 mg/kg. The settings on record: mouse, in vivo, 0.5 h.
Data set [40] can be described thus: The compound was determined for the dose (mg/kg) by rotarod test at the time of peak neurotoxic effect in mice on ip administration. It counts as ADME, organism-based. The settings on record: mouse, in vivo.
Data set [41] is described as follows: The compound was tested for neurologic toxicity (rotarod) test for 4 hours in mice; active at 30 mg/kg. It counts as organism-based. On the set-up: dose 30 mg/kg. The settings on record: mouse, in vivo.
In data set [42] the test system is Rattus norvegicus. As to the kind of experiment: The compound was tested per os dose of 25 mg/kg for 0.5 hours for rotarod toxicity; 0/4. The format is functional.

Active and inactive are the calls of the source. The calls are words filed in the database; no cut-off is given here. A value given as a limit tells only on which side of the number the result lay.

Consider `Cn1c(=O)oc2ccccc21`, for which the MES entry in data set [1] and in data set [2] was “active at 300 mg/kg” throughout. Moreover, the ED50 in [3] is 50.2 mg/kg; in data set [4], 132 mg/kg; in [13] it was 30.6 mg/kg. In addition, the TD50 was 113 mg/kg in data set [5] and more than 500 mg/kg in data set [23]. Moreover, the scMet entry in data set [6] and in data set [7] was “active at 100 mg/kg” each time. Further, the “No. of animals exhibiting toxicity / Number of animals tested” value in data set [8], in data set [9], in data set [10], in [11] and in [12] was 0 each time. Further, the Protected/Tested in data set [14] is recorded as 4; in [15], 2; in data set [16], 1; in data set [17], 0; in data set [18], 0. The Rotarod toxicity result in data set [19] and in data set [21] was “active at 100 mg/kg” in each case. For the same compound, in data set [20], the Toxicity stood at 0.25 h. This compound also came in with an Activity in data set [22] of 0.25 h. Besides, in [24], the PI is 16.4.

As for `Cn1c(=O)sc2ccccc21`, in data set [25], the Activity came to 0.25 h. Besides, the MES result in data set [26] and in data set [27] was “active at 100 mg/kg” throughout. The results for the median effective dose (ED50) in data set [28], in data set [4] and in data set [13] were 24.2 mg/kg, more than 100 mg/kg and 16.2 mg/kg, respectively. The scMet entry in [6] and in [29] was “active at 100 mg/kg” in each case. In addition, the “No. of animals exhibiting toxicity / Number of animals tested” value in data set [30], in [31], in data set [32], in [33] and in data set [42] was 0 each time. Also, the Protected/Tested in data set [34] came to 2; in [35], 2; in [36] it was 4; in data set [37], 3; in data set [38], 2. In addition, the Rotarod toxicity result in [39] and in data set [41] was “active at 30 mg/kg” each time. In addition, the TD50 in data set [40] came out at 55.2 mg/kg; in [23] it was 140 mg/kg. In data set [20], this compound yielded a Toxicity of 0.25 h. The PI in [24] worked out at 8.6.

One may read the ED50 as the midpoint of the dose-response relation. One may read the TD50 as the dose at which the toxic effect under study appears in half of the subjects.

Source of the values: ChEMBL document CHEMBL1131315, “Synthesis and anticonvulsant activity of 2(3H)-benzoxazolone and 2(3H)-benzothiazolone derivatives” (J Med Chem, 1998).
